# Measured values as given in patent publication US6903052B2, “Nematicidal compositions and methods” (Divergence, Inc., priority 2002, dated 2005).
# Columns and labels:
# C. elegans [1] = experiment: Nematicidal activity of single fatty acid methyl ester emulsions against Caenorhabditis elegans (Example 4); assay type: cell-based
# Experimental: Mixed stage Caenorhabditis elegans were washed off plates seeded with OP50 bacteria using M9 solution. 250 μl of the M9 solution, which contained about 50 worms, was pipetted into each well of a 24-well plate.
# (§1) Fatty acid methyl ester emulsions were prepared following the teachings of Kim et al (U.S. Pat. No. 5,698,592). Briefly, 1 ml 1% stock solution emulsions were prepared by mixing 10 μl of fatty acid methyl ester with 20 μl of the surfactant Igepal CO 630 in a 1.5 ml eppendorf tube. After careful mixing of fatty acid and Igepal CO 630, 850 μl of ddH20 was added and mixed by gentle pipetting until a homogeneous solution was obtained. Finally, 120 μl of pure isopropanol was added and mixed by gentle pipetting. This stock solution was then used to produce various fatty acid methyl ester dilution emulsions in 24-well plate assays.
# To each well, fatty acid emulsions or control emulsions were added and rapidly mixed by swirling. Nematode viability was scored by visual observation and motility assays at various time points 24 hours following addition of emulsions or controls. The fatty acid emulsions tested were methyl esters of nonanoic (pelargonic) acid, ricinoleic acid, vernolic acid, linoleic acid, oleic acid, and control emulsions lacking fatty acids.
# M. javanica [2] = experiment: Nematicidal activity of fatty acid methyl ester emulsions against root knot nematode J2 larvae (Example 6); assay type: cell-based, Meloidogyne javanica; settings: 0.1% emulsion; 48 hours incubation, counted about 24 hours after transfer to plates
# Experimental: as §1
# (§2) Meloidogyne incognita and javanica were prepared from tomato roots. The roots were bleached and the debris was separated from the J2 larvae and eggs by filtration followed by sucrose density gradient centrifugation. Eggs were hatched over 4 days at 15° C. and the J2 larvae were collected by passage though a filter, followed by centrifugation.
# (§3) Nematodes and emulsions were incubated with shaking at room temperature for 48 hours. The contents of each well were transferred to a small spot on individual NGM plates lacking bacteria. About 24 hours after the transfer to plates, worms on and off the inoculation spot were counted as not viable or viable, respectively. Worms were considered viable if they had crawled away from the inoculation spot, or if they were moving. Worms were considered non-viable if they remained at the inoculation spot.
# M. incognita [3] = experiment: as above; assay type: cell-based, Meloidogyne incognita; settings: 0.1% emulsion; 48 hours incubation, counted about 24 hours after transfer to plates
# Experimental: as §1, §2, §3
# [4] = system: root knot nematodes (Meloidogyne spp.); experiment: Nematicidal activity against root knot nematodes, summary statement; assay type: cell-based; settings: concentration of 0.1%
# Experimental: as §2, §3
# tomato seedlings = experiment: Phytotoxicity evaluation on tomato seedlings; assay type: in vivo; settings: 250 μl of 1% emulsion applied to stem-media interface of two-week seedlings
# Experimental: Sterilized tomato seeds were germinated in magenta jars containing Gamborg's agar media. After two weeks of growth, seedlings were treated with 250 μl of 1% fatty acid methyl ester emulsion (nonanoic acid, ricinoleic acid, ricinelaidic acid, oleic acid, or a control emulsion lacking any fatty acid), applied directly to the stem-media interface. Tomato seedlings were scored at various times after application of emulsions.
# C. elegans [5] = experiment: Nematicidal activity of fatty acid methyl ester emulsions, spectrum (Example 8); assay type: cell-based, Caenorhabditis elegans; settings: C. elegans mixed stage
# P. trichosuri = experiment: as above; assay type: cell-based, Parastrongyloides trichosuri; settings: P. trichosuri infective 3rd stage larva
# M. incognita [6] = experiment: as above; assay type: cell-based, Meloidogyne incognita; settings: M. incognita 2nd stage juveniles, scored at 48 hours
# M. javanica [7] = experiment: as above; assay type: cell-based, Meloidogyne javanica; settings: M. javanica 2nd stage juveniles, scored at 48 hours
# P. scribneri = experiment: as above; assay type: cell-based, Pratylenchus scribneri; settings: P. scribneri mixed stage
# C. elegans [8] = experiment: Nematicidal activity of emulsions made with Tween-20 (replacing Igepal CO 630) against C. elegans; assay type: cell-based, Caenorhabditis elegans; settings: Tween-20 emulsion
# B. malayi = experiment: Nematicidal activity of tween-based emulsions against microfilarial nematodes; assay type: cell-based, Brugia malayi
# [9] = system: everted hamster jejunal and ileal segments; settings: Gaginella et al. (1975); cited from earlier work
smiles,measurement,setting,value
"CCCCCCC(O)C/C=C\CCCCCCCC(=O)OC (stereo not drawn) [Ricinoleic Acid (C18-methyl ester), 12-hydroxy-cis-9-octadecenoic acid methyl ester]",Percentage of Worm Death,"C. elegans [1]; 0.003% emulsion, 1 hr",60%
same,Percentage of Worm Death,"C. elegans [1]; 0.003% emulsion, 6 hr",60%
same,Percentage of Worm Death,"C. elegans [1]; 0.003% emulsion, 24 hr",60%
same,Percentage of Worm Death,"C. elegans [1]; 0.1% emulsion, 1 hr",90%
same,Percentage of Worm Death,"C. elegans [1]; 0.1% emulsion, 6 hr",90%
same,Percentage of Worm Death,"C. elegans [1]; 0.1% emulsion, 24 hr",90%
same,Nematicidal activity (in words),C. elegans [1]; concentration of 0.1%,strongly nematicidal
same,Time before strong killing effects are apparent,"C. elegans [1]; emulsion, C. elegans",up to 30 minutes
same,M. javanica (% not viable),M. javanica [2],60%
same,M. incognita (% not viable),M. incognita [3],95%
same,Nematicidal activity (in words),[4],significant nematicidal activity
same,Visible effects on tomato seedlings,tomato seedlings,none of the tomatoes treated with the other fatty acid methyl ester emulsions showed visible effects
same,% Worm Death (24 hr),C. elegans [5]; 0.001% solution,30%
same,% Worm Death (24 hr),C. elegans [5]; 0.01% solution,80%
same,% Worm Death (24 hr),C. elegans [5]; 0.1% solution,100%
same,% Worm Death (24 hr),P. trichosuri; 0.01% solution,˜60%
same,% Worm Death (24 hr),P. trichosuri; 0.1% solution,˜50%
same,% Worm Death (24 hr),M. incognita [6]; 0.01% solution,83%
same,% Worm Death (24 hr),M. incognita [6]; 0.1% solution,95%
same,% Worm Death (48 hr),M. javanica [7]; 0.01% solution,5%
same,% Worm Death (48 hr),M. javanica [7]; 0.1% solution,60%
same,% Worm Death (24 hr),P. scribneri; 0.01% solution,<20%
same,% Worm Death (24 hr),P. scribneri; 0.1% solution,<20%
same,% Worm Death (24 hr),C. elegans [8]; 0.001% solution,40%
same,% Worm Death (24 hr),C. elegans [8]; 0.01% solution,100%
same,% Worm Death (24 hr),C. elegans [8]; 0.1% solution,100%
same,percentage of non-motile microfilaria,"B. malayi; 24 hrs post-inoculation, 0.0008%",0%
same,percentage of non-motile microfilaria,"B. malayi; 24 hrs post-inoculation, 0.0016%",24.7%
same,percentage of non-motile microfilaria,"B. malayi; 24 hrs post-inoculation, 0.003%",100%
same,percentage of non-motile microfilaria,"B. malayi; 24 hrs post-inoculation, 0.005%",100%
same,percentage of non-motile microfilaria,"B. malayi; 24 hrs post-inoculation, 0.0067%",100%
same,percentage of non-motile microfilaria,"B. malayi; 24 hrs post-inoculation, 0.008%",100%
same,percentage of non-motile microfilaria,"B. malayi; 48 hrs post-inoculation, 0.0008%",0%
same,percentage of non-motile microfilaria,"B. malayi; 48 hrs post-inoculation, 0.0016%",64.2%
same,percentage of non-motile microfilaria,"B. malayi; 48 hrs post-inoculation, 0.003%",100%
same,percentage of non-motile microfilaria,"B. malayi; 48 hrs post-inoculation, 0.005%",100%
same,percentage of non-motile microfilaria,"B. malayi; 48 hrs post-inoculation, 0.0067%",100%
same,percentage of non-motile microfilaria,"B. malayi; 48 hrs post-inoculation, 0.008%",100%
same,Microfilarialcidal activity (in words),B. malayi; tween-based emulsions,strong microfilarialcidal activity
same,Effect on water (and electrolyte) absorption,[9],ineffective at suppressing water absorption
